Results on seven compounds are retold here after the supplement of paper PMC11061612.

Molecules are shown by their SMILES.

Holding throughout (experiment): Bliss excess, mean over the matrix (fraction); higher = more synergy
Assay [1] concerns DMS-53 (Small Cell Lung Carcinoma). In a few lines: (§1)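 Bliss excess equals the observed combination effect minus the expected value EA + EB − EA·EB, where EA and EB are the effects of each agent alone. Combination Emax is the second-highest inhibition within the matrix. Inhibition was scaled from CellTiter-Glo 2.0 luminescence, with 0 set by vehicle wells and 1 by blank wells, after 72 hours of two-drug dosing of cells plated in 1536-well plates.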

The test system of assay [2] is A2780 (Ovarian Carcinoma). In outline: as §1
Assay [3] relates to 769-P (Kidney Carcinoma). In a few lines: as §1
For assay [4], the system named is RH-41 (Rhabdomyosarcoma). In a few lines:
as §1

In assay [5] the test system is Jurkat (T-Lymphoblastic Leukemia). In outline:
as §1

Assay [6] deals with HCC1428 (Breast Carcinoma). In a few lines:
as §1

Assay [7] concerns CGTH-W-1 (Thyroid Gland Carcinoma). In a few lines:
as §1

Assay [8] deals with EW-16 (Ewing's Sarcoma). In a few lines: as §1
In assay [9] the test system is EPLC-272H (Other Solid Carcinomas). In outline:
as §1

Assay [10] has as its system NCI-H441 (Lung Adenocarcinoma). In outline:
as §1

In assay [11] the test system is CAL-27 (Oral Cavity Carcinoma). In a few lines:
as §1

In assay [12] the test system is A253 (Head and Neck Carcinoma). In a few lines: as §1
The subject of assay [13] is GCT (Other Solid Carcinomas). In outline:
as §1

For assay [14], the system named is NCI-H1651 (Lung Adenocarcinoma). In outline: as §1
The subject of assay [15] is AU565 (Breast Carcinoma). In a few lines: as §1
For assay [16], the system named is JIMT-1 (Breast Carcinoma). In a few lines: as §1
For assay [17], the system named is MDA-MB-436 (Breast Carcinoma). In a few lines: as §1
In assay [18] the test system is LS-411N (Colorectal Carcinoma). In outline:
as §1

Assay [19] deals with huH-1 (Hepatocellular Carcinoma). In outline: as §1
The subject of assay [20] is CA46 (Burkitt's Lymphoma). In a few lines:
as §1

With `Cc1c2c(nn1C)CSCc1cc(n(C)n1)CSc1cc(c3ccccc3c1)OCCCc1c(C(=O)O)n(C)c3c-2c(Cl)ccc13` [AZD5991] + CCN(CCO)CCCOc1ccc2c(Nc3cc(CC(=O)Nc4cccc(F)c4)[nH]n3)ncnc2c1 [AZD2811] (first compound max 1 µM, 7x7, partner max 1 µM), the Bliss excess in assay [1] was 0.0525; in assay [2], 0.0561; in assay [3] it was -0.0395; in [4], 0.0183; in assay [5], 0.0119; in assay [6], 0.0469. In addition, the Bliss excess was 0.0439 in assay [7]; 0.117 in assay [8]; 0.0705 in [9]; -0.0142 in assay [10]; 0.0403 in assay [11]; 0.0542 in [12]. The Bliss excess in assay [13] is 0.0106; in assay [14] it was -0.0386; in [15], 0.0367; in assay [16], 0.0203; in [17] it was -0.0406; in [18] it was 0.0206. Also, the Bliss excess is 0.024 in [19] and 0.0251 in assay [20].
As for `CC(=O)c1c(C)c2cnc(Nc3ccc(N4CCNCC4)cn3)nc2n(C2CCCC2)c1=O` [Palbociclib] + Cc1c2c(nn1C)CSCc1cc(n(C)n1)CSc1cc(c3ccccc3c1)OCCCc1c(C(=O)O)n(C)c3c-2c(Cl)ccc13 [AZD5991] (first compound max 10 µM, 7x7, partner max 1 µM), the Bliss excess was 0.044 in assay [1]; -0.0344 in [2]; -0.004 in assay [3]; -0.0028 in assay [4]; -0.083 in [5]; -0.033 in [6]. For the same compound, the Bliss excess is -0.0037 in assay [7]; -0.0356 in [8]; -0.0979 in assay [9]; -0.0362 in [10]; -0.0869 in assay [11]; -0.134 in assay [12]. In addition, the Bliss excess in assay [13] was -0.049; in assay [14], -0.0239; in assay [15], -0.0211; in [16] it was -0.0348; in assay [17] it was -0.0243; in assay [18], -0.0397. Besides, the Bliss excess was -0.0422 in assay [19] and -0.0242 in assay [20].
On to `CCN(CCO)CCCOc1ccc2c(Nc3cc(CC(=O)Nc4cccc(F)c4)[nH]n3)ncnc2c1` [AZD2811] + C=CCn1c(=O)c2cnc(Nc3ccc(N4CCN(C)CC4)cc3)nc2n1-c1cccc(C(C)(C)O)n1 [AZD1775] (first compound max 1 µM, partner max 1 µM), for which the Bliss excess is -0.0378 in assay [1]; 0.088 in assay [2]; -0.0267 in assay [3]; 0.0118 in [4]; 0.0809 in assay [5]; -0.0478 in [6]. Besides, the Bliss excess in [7] was -0.0014; in assay [8], -0.0134; in assay [9] it was -0.0341; in assay [10] it was -0.0518; in assay [11] it was 0.0013; in assay [12], 0.0566. For the same compound, the Bliss excess in assay [13] is -0.0211; in assay [14], -0.0268; in assay [15] it was 0.0437; in assay [16], -0.0159; in [17], -0.0158; in assay [18], -0.0174. For the same compound, the Bliss excess is -0.0176 in assay [19] and 0.0165 in assay [20].
As for `CC1(C)CCC(CN2CCN(c3ccc(C(=O)NS(=O)(=O)c4ccc(NCC5CCOCC5)c([N+](=O)[O-])c4)c(Oc4cnc5[nH]ccc5c4)c3)CC2)=C(c2ccc(Cl)cc2)C1` [Venetoclax] + C[C@@H](Nc1cc(F)cc(F)c1)c1cc(C(=O)N(C)C)cc2c(=O)cc(N3CCOCC3)oc12 [AZD8186] (first compound max 1 µM, 7x7, partner max 3 µM), the Bliss excess in assay [1] was -0.0141; in assay [2] it was -0.0138; in [3] it was 0.049; in assay [4] it was 0.0587; in assay [5] it was 0.0084; in assay [6], -0.0147. Further, the Bliss excess is -0.0244 in assay [7]; -0.0278 in assay [8]; 0.0111 in [9]; -0.0304 in [10]; -0.0361 in [11]; -0.0364 in assay [12]. Besides, the Bliss excess is -0.0154 in assay [13]; -0.0212 in [14]; -0.0033 in [15]; -0.0411 in assay [16]; -0.0092 in assay [17]; 0.0099 in [18]. The figures for the Bliss excess in assay [19] and in assay [20] were -0.0265 and 0.0323, respectively.
`COc1cccc2c1C(=O)c1c(O)c3c(c(O)c1C2=O)C[C@@](O)(C(=O)CO)C[C@@H]3O[C@H]1C[C@H](N)[C@H](O)[C@H](C)O1` [Doxorubicin] + Cc1cc2ncnn2cc1Nc1ncc2c(n1)n(C1CCOCC1)c(=O)n2C [AZD7648] (first compound max 1 µM, 7x7, partner max 10 µM): the Bliss excess in [1] was 0.0197; in [2], 0.0194; in assay [3] it was 0.0903; in [4] it was 0.116; in [5], 0.181; in assay [6], -0.0499. Further, the Bliss excess in assay [7] was 0.0333; in [8] it was 0.0933; in assay [9], 0.0568; in assay [10] it was 0.0125; in [11], 0.0853; in assay [12], 0.108. Moreover, the Bliss excess stood at 0.0589 in assay [13]; 0.024 in assay [14]; 0.0753 in [15]; 0.0514 in assay [16]; 0.0122 in assay [17]; 0.0365 in [18]. The figures for the Bliss excess in assay [19] and in assay [20] were 0.102 and 0.0813, respectively.
With `COc1cccc(OCCCN)c1-c1cc(Nc2cnc(C#N)cn2)n[nH]1` [Prexasertib] + CCc1c2c(nc3ccc(O)cc13)-c1cc3c(c(=O)n1C2)COC(=O)[C@]3(O)CC [SN-38] (first compound max 1 µM, 7x7, partner max 0.3 µM), the Bliss excess in [1] is -0.0377; in assay [2] it was -0.0528; in [3], -0.0688; in assay [4] it was 0.0029; in assay [5], -0.005; in assay [6], 0.045. Further, the Bliss excess is -0.0566 in [7]; -0.0002 in [8]; -0.0229 in assay [9]; -0.0772 in [10]; 0.0083 in assay [11]; 0.0296 in [12]. Also, the Bliss excess is -0.0185 in assay [13]; -0.0551 in [14]; -0.0213 in [15]; 0.0096 in assay [16]; -0.003 in assay [17]; 0.0331 in [18]. Moreover, the Bliss excess in [19] was 0.022; in [20], 0.0035.
Consider `C=CCn1c(=O)c2cnc(Nc3ccc(N4CCN(C)CC4)cc3)nc2n1-c1cccc(C(C)(C)O)n1` [AZD1775] + O=C(c1cc(Cc2n[nH]c(=O)c3ccccc23)ccc1F)N1CCN(C(=O)C2CC2)CC1 [Olaparib] (first compound max 1 µM, partner max 10 µM), for which the Bliss excess was -0.0715 in assay [1]; -0.0256 in assay [2]; -0.0578 in assay [3]; -0.0484 in assay [4]; -0.0088 in assay [5]; -0.0279 in assay [6]. In addition, the Bliss excess in [7] was -0.0222; in assay [8] it was -0.0129; in assay [9] it was 0.0169; in [10], -0.0662; in [11], -0.0431; in assay [12], 0.0364. The Bliss excess in assay [13] was -0.0327; in [14], -0.0869; in assay [15], -0.0195; in assay [16], -0.0795; in assay [17], -0.0077; in assay [18] it was -0.0608. For the same compound, the Bliss excess was -0.0118 in assay [19] and -0.0612 in assay [20].
